Experiment: Drug absorption in human assessed as human intestinal absorption rate
Format: ADME, tissue-based, Intestine

Row | Structure (SMILES) | log10(%HIA +10)
1 | CO[C@H]1C[C@H](O[C@H]2CC[C@]3(C=O)[C@H]4CC[C@]5(C)[C@@H](C6=CC(=O)OC6)CC[C@]5(O)[C@@H]4CC[C@]3(O)C2)O[C@H](C)[C@H]1O [CYMARIN] | 1.756
2 | O=C(O)Cc1ccccc1Nc1c(Cl)cccc1Cl [DICLOFENAC] | 2.041
3 | CN1C[C@H](C(=O)N[C@]2(C)O[C@@]3(O)[C@@H]4CCCN4C(=O)[C@H](Cc4ccccc4)N3C2=O)C[C@@H]2c3cccc4[nH]cc(c34)C[C@H]21 [DIHYDROERGOTAMINE] | 1.653
4 | OCCN(CCO)c1nc(N2CCCCC2)c2nc(N(CCO)CCO)nc(N3CCCCC3)c2n1 [DIPYRIDAMOLE] | 1.833
5 | COc1cccc2c1C(=O)c1c(O)c3c(c(O)c1C2=O)C[C@@](O)(C(=O)CO)C[C@@H]3O[C@H]1C[C@H](N)[C@H](O)[C@H](C)O1 [DOXORUBICIN] | 1.176
6 | O=C(O)CN(CCN(CC(=O)O)CC(=O)O)CC(=O)O [EDETIC ACID] | 1.176
7 | NCCCC(N)(C(=O)O)C(F)F (stereo unspecified) [EFLORNITHINE] | 1.813
8 | CCOC(=O)[C@H](CCc1ccccc1)N[C@@H](C)C(=O)N1CCC[C@H]1C(=O)O.O=C(O)/C=C\C(=O)O [ENALAPRIL MALEATE] | 1.881
9 | CC[C@@H](CO)NCCN[C@@H](CC)CO [ETHAMBUTOL] | 1.954
10 | CCc1cccc2c3c([nH]c12)C(CC)(CC(=O)O)OCC3 (stereo unspecified) [ETODOLAC] | 1.903
11 | CC(=O)OCC(CCn1cnc2cnc(N)nc21)COC(C)=O [FAMCICLOVIR] | 1.903
12 | NC(N)=Nc1nc(CSCCC(N)=NS(N)(=O)=O)cs1 [FAMOTIDINE] | 1.681
13 | NC(=O)OCC(COC(N)=O)c1ccccc1 [FELBAMATE] | 2
14 | Cc1onc(-c2c(F)cccc2Cl)c1C(=O)N[C@@H]1C(=O)N2[C@@H]1SC(C)(C)[C@@H]2C(=O)O [FLOXACILLIN] | 1.699
15 | OC(Cn1cncn1)(Cn1cncn1)c1ccc(F)cc1F [FLUCONAZOLE] | 2.027
16 | N=c1nc2n(cc1F)[C@@H]1O[C@H](CO)[C@@H](O)[C@@H]1O2 [FLUROCITABINE] | 1.623
17 | O=C(O)P(=O)(O)O [FOSCARNET] | 1.431
18 | C[C@@H]1O[C@@H]1P(=O)(O)O [FOSFOMYCIN] | 1.613
19 | O=CN(O)CCCP(=O)(O)O [FOSMIDOMYCIN] | 1.602
20 | NC[C@@H]1O[C@H](O[C@H]2[C@@H](O)[C@H](O[C@@H]3[C@@H](O)[C@H](N)C[C@H](N)[C@H]3O[C@H]3O[C@H](CN)[C@@H](O)[C@H](O)[C@H]3N)O[C@@H]2CO)[C@H](N)[C@@H](O)[C@@H]1O [FRAMYCETIN] | 1.041
21 | NS(=O)(=O)c1cc(C(=O)O)c(NCc2ccco2)cc1Cl [FUROSEMIDE] | 1.851
22 | Nc1nc(O)c2ncn(COC(CO)CO)c2n1 [GANCICLOVIR] | 1.134
23 | N=C(N)N/N=C/c1c(Cl)cccc1Cl [GUANABENZ] | 1.954
24 | N=C(N)NCC1COc2ccccc2O1 (stereo unspecified) [GUANOXAN] | 1.778

Row | Structure (SMILES) | log10(%HIA +10)
25 | NS(=O)(=O)c1cc2c(cc1Cl)NCNS2(=O)=O [HYDROCHLOROTHIAZIDE] | 1.875
26 | C[C@]12CCC(=O)C=C1CC[C@@H]1[C@@H]2[C@@H](O)C[C@@]2(C)[C@H]1CC[C@]2(O)C(=O)CO [HYDROCORTISONE] | 2.004
27 | CC(C)Cc1ccc(C(C)C(=O)O)cc1 (stereo unspecified) [IBUPROFEN] | 2.041
28 | C[C@@H](O)[C@H]1C(=O)N2C(C(=O)O)=C(SCCN=CN)C[C@H]12 [IMIPENEM ANHYDROUS] | 1.176
29 | COc1ccc2c(c1)c(CC(=O)O)c(C)n2C(=O)c1ccc(Cl)cc1 [INDOMETHACIN] | 2.041
30 | CC(=O)N(CC(O)CO)c1c(I)c(C(=O)NCC(O)CO)c(I)c(C(=O)NCC(O)CO)c1I (stereo unspecified) [IOHEXOL] | 1.176
31 | CNC(=O)c1c(I)c(NC(C)=O)c(I)c(C(=O)O)c1I [IOTHALAMIC ACID] | 1.076
32 | O=C(COCCOCCOCC(=O)Nc1c(I)cc(I)c(C(=O)O)c1I)Nc1c(I)cc(I)c(C(=O)O)c1I [IOTROXIC ACID] | 1.176
33 | Cc1cc(C(=O)NNCc2ccccc2)no1 [ISOCARBOXAZID] | 1.903
34 | NC[C@H]1O[C@H](O[C@H]2[C@H](O)[C@@H](O[C@H]3O[C@H](CO)[C@@H](O)[C@H](N)[C@H]3O)[C@H](N)C[C@@H]2N)[C@H](O)[C@@H](O)[C@@H]1O [KANAMYCIN] | 1.041
35 | CC(C(=O)O)c1cccc(C(=O)c2ccccc2)c1 (stereo unspecified) [KETOPROFEN] | 2.009
36 | O=C(c1ccccc1)c1ccc2n1CCC2C(=O)O (stereo unspecified) [KETOROLAC] | 2
37 | CC(CCc1ccccc1)NCC(O)c1ccc(O)c(C(N)=O)c1 (stereo unspecified) [LABETALOL] | 2.021
38 | OC[C@H]1O[C@@H](O[C@@H]2[C@@H](CO)O[C@](O)(CO)[C@H]2O)[C@H](O)[C@@H](O)[C@H]1O [LACTULOSE] | 1.025
39 | Nc1ccn([C@@H]2CS[C@H](CO)O2)c(=O)n1 [LAMIVUDINE] | 1.987
40 | Cc1c(OCC(F)(F)F)ccnc1C[S+]([O-])c1nc2ccccc2[nH]1 (stereo unspecified) [LANSOPRAZOLE] | 1.978
41 | CCC[C@@H]1C[C@@H](C(=O)N[C@@H]([C@H]2O[C@H](SC)[C@H](O)[C@@H](O)[C@H]2O)[C@@H](C)O)N(C)C1 [LINCOMYCIN] | 1.574
42 | NCCCC[C@H](N[C@@H](CCc1ccccc1)C(=O)O)C(=O)N1CCC[C@H]1C(=O)O [LISINOPRIL ANHYDROUS] | 1.544
43 | CC[C@H](C)C(=O)O[C@H]1C[C@@H](C)C=C2C=C[C@H](C)[C@H](CC[C@@H]3C[C@@H](O)CC(=O)O3)[C@H]21 [LOVASTATIN] | 1.608
44 | OC[C@@H](O)[C@@H](O)[C@H](O)[C@H](O)CO [MANNITOL] | 1.415
45 | C[C@@H](O)[C@H]1C(=O)N2C(C(=O)O)=C(S[C@@H]3CN[C@H](C(=O)N(C)C)C3)[C@H](C)[C@H]12 [MEROPENEM] | 1
46 | CC(C)NCC(O)c1cc(O)cc(O)c1 (stereo unspecified) [METAPROTERENOL] | 1.732
47 | CN(C)C(=N)N=C(N)N [METFORMIN] | 1.799
48 | C[C@](N)(Cc1ccc(O)c(O)c1)C(=O)O [METHYLDOPA] | 1.708

Row | Structure (SMILES) | log10(%HIA +10)
49 | Cc1ccccc1N1C(=O)c2cc(S(N)(=O)=O)c(Cl)cc2NC1C (stereo unspecified) [METOLAZONE] | 1.863
50 | CC1(C)S[C@@H]2[C@H](NC(=O)[C@H](NC(=O)N3CCN(S(C)(=O)=O)C3=O)c3ccccc3)C(=O)N2[C@H]1C(=O)O [MEZLOCILLIN] | 1
51 | CN1CCN2c3ccccc3Cc3ccccc3C2C1 (stereo unspecified) [MIANSERIN] | 1.903
52 | COCC(=O)O[C@]1(CCN(C)CCCc2nc3ccccc3[nH]2)CCc2cc(F)ccc2[C@@H]1C(C)C [MIBEFRADIL] | 1.898
53 | Nc1cc(N2CCCCC2)nc(N)[n+]1[O-] [MINOXIDIL] | 2.033
54 | O=C1c2c(O)ccc(O)c2C(=O)c2c(NCCNCCO)ccc(NCCNCCO)c21 [MITOXANTRONE] | 1.176
55 | CCOC(=O)[C@H](CCc1ccccc1)N[C@@H](C)C(=O)N1Cc2cc(OC)c(OC)cc2C[C@H]1C(=O)O [MOEXIPRIL] | 1.176
56 | CCOC(=O)Nc1ccc2c(c1)N(C(=O)CCN1CCOCC1)c1ccccc1S2 [MORICIZINE] | 1.991
57 | CC(=O)Oc1cc(C(C)C)c(OCCN(C)C)cc1C [MOXISYLYTE] | 1.903
58 | COc1nc(C)nc(Cl)c1N=C1NCCN1 [MOXONIDINE] | 1.991
59 | CC(C)(C)NCC(O)COc1cccc2c1CC(O)C(O)C2 (stereo unspecified) [NADOLOL] | 1.613
60 | COc1ccc2cc([C@H](C)C(=O)O)ccc2c1 [NAPROXEN] | 2.037
61 | CCCc1c2oc(C(=O)O)cc(=O)c2cc2c(=O)cc(C(=O)O)n(CC)c12 [NEDOCROMIL] | 1.114
62 | CCN[C@@H]1C[C@H](N)[C@@H](O[C@H]2OC(CN)=CC[C@H]2N)[C@H](O)[C@H]1O[C@H]1OC[C@](C)(O)[C@H](NC)[C@H]1O [NETILMICIN] | 1
63 | CCOC(=O)C1=C(C)NC(C)=C(C(=O)OC)C1c1cccc([N+](=O)[O-])c1 (stereo unspecified) [NITRENDIPINE] | 1.991
64 | O=C(O)c1cc(/N=N/c2ccc(O)c(C(=O)O)c2)ccc1O [OLSALAZINE] | 1.09
65 | C[C@@H]1O[C@@H](O[C@H]2C[C@@H](O)[C@]3(CO)[C@H]4[C@H](O)C[C@]5(C)[C@@H](C6=CC(=O)OC6)CC[C@]5(O)[C@@H]4CC[C@]3(O)C2)[C@H](O)[C@H](O)[C@H]1O [OUABAIN] | 1.057
66 | COc1ccc2c3c1O[C@H]1C(=O)CC[C@@]4(O)[C@@H](C2)N(C)CC[C@]314 [OXYCODONE] | 1.845
67 | COc1cccc(C(=O)CCN[C@@H](C)[C@H](O)c2ccccc2)c1 [OXYFEDRINE] | 1.978
68 | CN(C)[C@@H]1C(O)=C(C(N)=O)C(=O)[C@@]2(O)C(O)=C3C(=O)c4c(O)cccc4[C@@](C)(O)[C@H]3[C@H](O)[C@@H]12 [OXYTETRACYCLINE] | 1.833
69 | CC(C)NCC(O)COc1ccc(CCNC(=O)NC(C)C)cc1 (stereo unspecified) [PAFENOLOL] | 1.591
70 | NCCC(O)(P(=O)(O)O)P(=O)(O)O [PAMIDRONIC ACID] | 1.176
71 | N=C(N)c1ccc(OCCCCCOc2ccc(C(=N)N)cc2)cc1 [PENTAMIDINE] | 1

Reference: ChEMBL document CHEMBL1649380, “Prediction of drug intestinal absorption by new linear and non-linear QSPR” (Eur J Med Chem, 2011)
